{"source": "patent US10595542B2", "about": "“Method for producing Swiss-type cheese” (CSK Food Enrichment B.V., priority 2014, dated 2020)", "key": {"[1]": {"system": "different strains of C. tyrobutyricum", "experiment": "MIC value determination against C. tyrobutyricum", "assay_type": "cell-based, Clostridium tyrobutyricum", "experimental": "The dairy Propionibacteria that are comprised in the starter culture according to the invention are preferably characterized by having a MIC value of 5 mg or higher, more preferably 10 mg or higher, even more preferably 25 mg or higher, even more preferably 50 mg or higher, most preferably even 100 mg or higher for lacticin 3147 per litre of growth medium. Herein, the term MIC has its common meaning of “minimal inhibitory concentration” and is the lowest concentration of an antimicrobial (in the present case lacticin 3147) that will inhibit the visible growth of a microorganism after overnight incubation. MIC values for lacticin 3147 or other bacteriocins are typically determined according to the following test: Propionibacterium strains are grown from an individual colony for 2-3 nights (SLA, 30° C., anaerobically) until turbid. 3% inoculum is subbed into fresh SLA medium and incubated for approx. 7 hours until OD600 0.5 is reached. […] Growth following incubation at 30° C. anaerobically for 19-24 hours is visually evaluated by inspecting turbidity from left to right. MIC values are determined according to the last well where no visible growth is observed (average of triplicate determinations). […]\nMIC values were determined according to a protocol from UCC & Piper et al., J. Antimicrob. […]"}, "[2]": {"system": "Propionibacteria freudenreichii CSK 1205", "experiment": "MIC value determination, 96 wells microtitre plate", "assay_type": "cell-based, Propionibacterium freudenreichii", "details": "strain CSK 1205; SLA medium, 30° C. anaerobically 19-24 hours; average of triplicate", "experimental": "(§1) The dairy Propionibacteria that are comprised in the starter culture according to the invention are preferably characterized by having a MIC value of 5 mg or higher, more preferably 10 mg or higher, even more preferably 25 mg or higher, even more preferably 50 mg or higher, most preferably even 100 mg or higher for lacticin 3147 per litre of growth medium. Herein, the term MIC has its common meaning of “minimal inhibitory concentration” and is the lowest concentration of an antimicrobial (in the present case lacticin 3147) that will inhibit the visible growth of a microorganism after overnight incubation. MIC values for lacticin 3147 or other bacteriocins are typically determined according to the following test: Propionibacterium strains are grown from an individual colony for 2-3 nights (SLA, 30° C., anaerobically) until turbid. 3% inoculum is subbed into fresh SLA medium and incubated for approx. 7 hours until OD600 0.5 is reached. Of the resulting culture, 10^5 cfu/ml is inoculated into 96 wells microtitreplates containing fresh SLA medium comprising lacticin 3147, or other bacteriocin, ranging in concentrations from 100 mg/L to 0.01 mg/L (high concentrations to the left, low concentrations to the right). Growth following incubation at 30° C. anaerobically for 19-24 hours is visually evaluated by inspecting turbidity from left to right. MIC values are determined according to the last well where no visible growth is observed (average of triplicate determinations). The above protocol under appropriate growth conditions can be used to obtain MIC values of other strains, e.g. of Lactoabacilli, Clostridia, etc., against lacticin 3147 or other bacteriocins such as nisin. […] At the same time MIC values against nisin were at least 20 times lower.\n(§2) MIC values were determined according to a protocol from UCC & Piper et al., J. Antimicrob. Chemother. 2009, 61(3), 546. The protocol was adapted for 96 wells mictrotitre plate screening. Indicator strains Lb. delbrueckii ssp. lactis, C99 (commercially available ex CSK Food Enrichment CV) and Propionibacterium freudenreichii, C21 (commercially available ex CSK Food Enrichment CV) were used. Growth media were MRS for C99, sodium lactate agar (SLA) for C21.\n(§3) MIC value determination of propionibacteria against lacticin was performed according to the following procedure: Propionibacterium strains were grown, from an individual colony, for 2-3 nights (SLA, 30 deg C., anaerobically) until turbid. 3% inoculum was subbed into fresh SLA medium and incubated for approx. 7 hours until OD600 0.5 was reached. Of the resulting culture, 10^5 cfu/ml was inoculated into 96 wells microtitreplates containing fresh SLA medium comprising lacticin 3147 ranging in concentrations from 100 mg/L to 0.01 mg/L (high concentrations to the left, low concentrations to the right). Visually evaluated growth following incubation at 30° C. anaerobically for 19-24 hours, by inspecting turbidity from left to right (i.e. starting at the highest lacticin concentrations). MIC values were determined according to the last well where no visible growth is observed (average of triplicate determinations). MIC values against nisin have be obtained similarly."}, "[3]": {"system": "Propionibacteria freudenreichii DPC 4555", "experiment": "MIC value determination, 96 wells microtitre plate", "assay_type": "cell-based, Propionibacterium freudenreichii", "details": "strain DPC 4555; SLA medium, 30° C. anaerobically 19-24 hours; average of triplicate", "experimental": "as §1, §2, §3"}, "[4]": {"system": "Propionibacteria freudenreichii CSK code 21", "experiment": "MIC value determination, 96 wells microtitre plate", "assay_type": "cell-based, Propionibacterium freudenreichii", "details": "strain CSK code 21; SLA medium, 30° C. anaerobically 19-24 hours; average of triplicate", "experimental": "as §1, §2, §3"}, "[5]": {"system": "Propionibacteria freudenreichii DPC 2241", "experiment": "MIC value determination, 96 wells microtitre plate", "assay_type": "cell-based, Propionibacterium freudenreichii", "details": "strain DPC 2241; SLA medium, 30° C. anaerobically 19-24 hours; average of triplicate", "experimental": "as §1, §2, §3"}, "[6]": {"system": "Lb. delbrueckii ssp. lactis, C99", "experiment": "MIC value determination of Lactobacilli", "assay_type": "cell-based, Lactobacillus delbrueckii", "details": "results not shown", "experimental": "as §2\nMIC value determination of Lactobacilli against lacticin was performed according to the following procedure: Lactobacillus strains were grown, from an individual colony, overnight (MRS, 37 deg C., anaerobically) until turbid. 3% inoculum was subbed into fresh […] medium and incubated for approx. 7 hours until OD600 0.5 was reached. Of the resulting culture, 10^5 cfu/ml was inoculated into 96 wells microtitreplates containing fresh MRS medium comprising lacticin 3147 ranging in concentrations from 100 mg/L to 0.01 mg/L (high concentrations to the left, low concentrations to the right). Visually evaluated growth following incubation at 37° C. anaerobically for 19-24 hours, by inspecting turbidity from left to right (i.e. starting at the highest lacticin concentrations). MIC values were determined according to the last well where no visible growth is observed (average of triplicate determinations)."}}, "data": [{"substance": "nisin [reference compound]", "values": [{"measurement": "MIC values", "setting": "[1]", "value": "0.03 to 0.1", "unit": "µg/mL"}, {"measurement": "MIC", "setting": "[2]", "value": 1.25, "unit": "µg/mL"}, {"measurement": "MIC", "setting": "[3]", "value": 0.039, "unit": "µg/mL"}, {"measurement": "MIC", "setting": "[4]", "value": 1.25, "unit": "µg/mL"}, {"measurement": "MIC", "setting": "[5]", "value": 2.5, "unit": "µg/mL"}]}, {"substance": "lacticin 3147", "values": [{"measurement": "MIC values", "setting": "[1]", "value": "0.4 to 2.5", "unit": "µg/mL"}, {"measurement": "MIC", "setting": "[2]", "value": ">50", "unit": "µg/mL"}, {"measurement": "MIC", "setting": "[3]", "value": 8.3, "unit": "µg/mL"}, {"measurement": "MIC", "setting": "[4]", "value": ">50", "unit": "µg/mL"}, {"measurement": "MIC", "setting": "[5]", "value": ">50", "unit": "µg/mL"}, {"measurement": "lacticin 3147 required to inhibit relative to nisin", "setting": "[6]", "value": "Approximately 10 times"}]}]}
